Values after ≈ are worked out from the molar mass of the structure shown. Active and inactive are the calls of the source. No cut-off for these calls is given here.
How the values were obtained:
[1] = Aqueous solubility of compound at pH 7.4 measured for 1 hr by UV-plate reader analysis; type: physicochemical; conditions: buffer
[2] = system: MOLT-4; assay: Antiproliferative activity against human MOLT-4 cells assessed as inhibition of cell growth with replenishment of medium with compound on day 4 and 7 and measured after 12 days by ATPlite assay; type: functional; conditions: MOLT-4, 288 h, time 12 day
[3] = system: MOLT-4; assay: Antiproliferative activity against human MOLT-4 cells assessed as inhibition of cell growth with replenishment of medium with compound on day 4 and 7 by ATPlite assay; type: functional
[4] = Permeability of compound by PAMPA assay; type: ADME; conditions: for Papp: read-out: permeability
[5] = Microsomal stability in human liver microsomes assessed as parent compound remaining after 30 mins in presence of NADPH by LC -MS/MS analysis; type: ADME, Microsome; conditions: read-out: Stability
[6] = Microsomal stability in mouse liver microsomes assessed as parent compound remaining after 30 mins in presence of NADPH by LC -MS/MS analysis; type: ADME, Microsome; conditions: read-out: Stability
[7] = molecular target: T1, Histone-lysine N-methyltransferase EHMT2 (Homo sapiens, UniProt Q96KQ7); assay: Inhibition of G9a (unknown origin)
T1 sequence (Q96KQ7 whole entry): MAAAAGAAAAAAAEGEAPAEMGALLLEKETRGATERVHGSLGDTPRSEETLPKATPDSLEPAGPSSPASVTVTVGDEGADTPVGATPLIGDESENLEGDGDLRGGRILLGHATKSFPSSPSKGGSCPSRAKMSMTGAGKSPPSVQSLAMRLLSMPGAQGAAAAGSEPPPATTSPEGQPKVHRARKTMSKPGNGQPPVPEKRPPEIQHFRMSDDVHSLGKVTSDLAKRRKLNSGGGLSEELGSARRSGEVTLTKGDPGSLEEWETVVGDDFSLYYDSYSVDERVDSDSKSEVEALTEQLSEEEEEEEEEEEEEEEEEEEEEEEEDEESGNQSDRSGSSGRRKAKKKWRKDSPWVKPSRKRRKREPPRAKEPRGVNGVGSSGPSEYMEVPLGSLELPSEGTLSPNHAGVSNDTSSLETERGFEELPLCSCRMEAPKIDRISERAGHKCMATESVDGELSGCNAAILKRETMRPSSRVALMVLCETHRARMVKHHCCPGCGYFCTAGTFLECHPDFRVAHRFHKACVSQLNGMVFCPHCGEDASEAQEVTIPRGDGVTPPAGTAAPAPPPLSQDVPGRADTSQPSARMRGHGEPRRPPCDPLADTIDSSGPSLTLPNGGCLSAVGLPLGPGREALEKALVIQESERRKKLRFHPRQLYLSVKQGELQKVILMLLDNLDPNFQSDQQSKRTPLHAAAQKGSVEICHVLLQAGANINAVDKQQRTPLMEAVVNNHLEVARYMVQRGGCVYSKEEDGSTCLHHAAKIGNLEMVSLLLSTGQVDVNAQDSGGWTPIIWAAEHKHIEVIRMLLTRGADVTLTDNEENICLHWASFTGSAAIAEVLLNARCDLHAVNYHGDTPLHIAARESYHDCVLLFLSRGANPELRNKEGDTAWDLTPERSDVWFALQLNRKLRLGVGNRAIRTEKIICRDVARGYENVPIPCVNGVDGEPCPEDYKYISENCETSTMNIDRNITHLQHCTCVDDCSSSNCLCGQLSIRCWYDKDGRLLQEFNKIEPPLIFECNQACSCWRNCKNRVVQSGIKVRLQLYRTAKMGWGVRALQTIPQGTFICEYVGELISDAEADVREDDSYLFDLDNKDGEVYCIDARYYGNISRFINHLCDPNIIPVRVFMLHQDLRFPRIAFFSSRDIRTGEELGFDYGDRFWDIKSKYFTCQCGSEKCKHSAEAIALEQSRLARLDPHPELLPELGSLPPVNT

[8] = molecular target: T2, Histone-lysine N-methyltransferase EHMT1 (Homo sapiens, UniProt Q9H9B1); assay: Inhibition of GLP (unknown origin)
T2 sequence (Q9H9B1 whole entry): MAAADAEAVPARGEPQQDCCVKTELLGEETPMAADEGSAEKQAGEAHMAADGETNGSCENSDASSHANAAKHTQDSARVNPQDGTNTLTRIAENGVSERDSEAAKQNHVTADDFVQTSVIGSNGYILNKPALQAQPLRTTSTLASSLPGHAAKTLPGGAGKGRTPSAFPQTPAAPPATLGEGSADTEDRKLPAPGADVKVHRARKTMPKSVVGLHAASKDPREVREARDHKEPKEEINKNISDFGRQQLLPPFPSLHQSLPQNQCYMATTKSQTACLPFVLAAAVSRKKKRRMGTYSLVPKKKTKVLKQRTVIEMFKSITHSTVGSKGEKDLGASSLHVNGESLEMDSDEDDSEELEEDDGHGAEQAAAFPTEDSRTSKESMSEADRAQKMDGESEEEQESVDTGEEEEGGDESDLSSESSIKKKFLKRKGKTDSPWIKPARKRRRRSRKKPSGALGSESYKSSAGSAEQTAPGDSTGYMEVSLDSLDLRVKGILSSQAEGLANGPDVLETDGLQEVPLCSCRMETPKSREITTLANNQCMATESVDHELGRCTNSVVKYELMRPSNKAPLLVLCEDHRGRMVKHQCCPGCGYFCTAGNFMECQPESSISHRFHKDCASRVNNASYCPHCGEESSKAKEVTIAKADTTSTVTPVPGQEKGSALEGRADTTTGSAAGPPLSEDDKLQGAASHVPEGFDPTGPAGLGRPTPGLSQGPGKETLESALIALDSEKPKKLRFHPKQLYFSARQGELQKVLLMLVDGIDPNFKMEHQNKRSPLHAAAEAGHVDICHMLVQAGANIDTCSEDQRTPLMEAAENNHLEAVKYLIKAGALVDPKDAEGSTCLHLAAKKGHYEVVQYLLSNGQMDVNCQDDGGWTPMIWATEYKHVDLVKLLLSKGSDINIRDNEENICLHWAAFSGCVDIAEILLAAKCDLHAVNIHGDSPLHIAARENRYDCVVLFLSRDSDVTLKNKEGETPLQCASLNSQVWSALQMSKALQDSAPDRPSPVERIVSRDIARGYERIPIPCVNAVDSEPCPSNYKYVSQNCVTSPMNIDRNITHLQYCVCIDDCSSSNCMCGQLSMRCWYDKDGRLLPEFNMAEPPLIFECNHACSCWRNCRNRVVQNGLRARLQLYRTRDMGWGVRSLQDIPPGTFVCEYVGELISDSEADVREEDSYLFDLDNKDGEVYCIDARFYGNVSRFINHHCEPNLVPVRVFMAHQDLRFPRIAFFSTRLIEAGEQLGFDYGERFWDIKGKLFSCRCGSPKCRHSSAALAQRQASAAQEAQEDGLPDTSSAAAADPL

[9] = system: MOLT-4; assay: Downregulation of H3K9 dimethylation in human MOLT-4 cells at 0.1 uM by Western blot analysis; type: functional, cell-based
[10] = molecular target: T1, Histone-lysine N-methyltransferase EHMT2; assay: Inhibition of N-terminal GST-tagged human recombinant G9a (785 to 1210 residues) expressed in baculovirus infected Sf9 cells incubated for 1 hr by AlphaLISA analysis
[11] = AUC (0 to infinity) in ICR mouse at 25 mg/kg, ip; type: ADME, organism-based; set-up: dose 25 mg/kg, route ip; conditions: in vivo
[12] = Tmax in ICR mouse at 25 mg/kg, ip; type: ADME, organism-based; conditions: in vivo
[13] = Half life in ICR mouse at 25 mg/kg, ip; type: ADME, organism-based; conditions: in vivo
[14] = Cmax in ICR mouse at 25 mg/kg, ip; type: ADME, organism-based; set-up: dose 25 mg/kg, route ip; conditions: in vivo
[15] = system: MOLT-4; assay: Downregulation of H3K9 dimethylation in human MOLT-4 cells at 1 uM by Western blot analysis; type: functional, cell-based
[16] = Toxicity in C57BL/6 mouse assessed as body weight loss at 20 to 50 mg/kg, ip measured after 48 weeks; type: organism-based; conditions: in vivo, 8064 h, dose 20-50 mg/kg
[17] = Drug concentration in C57BL/6 mouse liver at 20 mg/kg, ip measured after 4 hrs; type: ADME, organism-based; conditions: read-out: Ct
[18] = Drug concentration in C57BL/6 mouse plasma at 50 mg/kg, ip measured after 4 hrs; type: ADME, organism-based
[19] = system: Mus musculus; assay: In vivo inhibition of G9a in C57BL/6 mouse liver assessed as reduction in H3K9me2 level at 20 to 50 mg/kg, ip measured after 5 days by Westernblot analysis; type: functional, organism-based; conditions: dose 20-50 mg/kg, time 5.0 day
[20] = system: Mus musculus; assay: In vivo inhibition of G9a in C57BL/6 mouse liver assessed as H3 histone methylation at 20 to 50 mg/kg, ip measured after 5 days by Westernblot analysis; type: functional, organism-based; conditions: dose 20-50 mg/kg, time 5.0 day
[21] = Drug concentration in C57BL/6 mouse plasma at 20 mg/kg, ip measured after 4 hrs; type: ADME, organism-based
[22] = system: HCC; assay: Antitumor activity against DEN-induced […] HCC tumor in C57BL/6 mouse at 20 to 50 mg/kg, ip measured after 48 weeks; type: functional, organism-based; conditions: dose 20-50 mg/kg
[23] = Drug concentration in C57BL/6 mouse liver at 50 mg/kg, ip measured after 4 hrs; type: ADME, organism-based; conditions: read-out: Ct

Row | SMILES | solubility at 1 h [1] | GI50 [2] | GI50 [3] | remaining at 0.5 h [5] | remaining at 0.5 h [6] | IC50 [10] | Papp [4] | further results
1 | COc1cc2c(NC3CCN(C(C)C)CC3)nc(C3CCCCC3)nc2cc1OCCCN1CCCC1 | > 200 µM | 0.188 µM | 0.188 µM | 89.7% | 67% |  |  | permeability [4]: 1.89 10^-6 cm/s
2 | COc1cc2c(cc1C1=CCN(C)CCC1)N=C(N)C21CCC1 |  |  |  |  |  |  |  | IC50 [7]: 0.0126 µM; IC50 [8]: 0.0757 µM
3 | Cc1c(C(=O)N[C@H](CCC2CC2)C(=O)Nc2ccccc2)[nH]c2c1C(=O)CC(C)(C)C2 |  | 1.79 µM |  |  |  | 2.1 µM |  | AUC(0-inf) [11]: 10.3 µM·h; Tmax [12]: 4 h; half-life [13]: 0.58 h; Cmax [14]: 4.14 µM; Activity [15]: inactive
4 | Cc1ccc(NC(=O)[C@@H](CCC2CC2)NC(=O)c2[nH]c3c(c2C)C(=O)CC(C)(C)C3)cn1 | 50.8 µM (≈ 22.2 µg/mL) |  | 0.176 µM | 40.2% | 38.1% | 0.05 µM | 96.4 nm/s | 
5 | CCCCNC(=O)C(CCCC)NC(=O)c1[nH]c2c(c1C)C(=O)CC(C)(C)C2 (racemic) | 11 µM (≈ 4.28 µg/mL) |  |  | 30.6% | 0.8% | 1.09 µM | 87.3 nm/s | 
6 | CCCCC(NC(=O)c1[nH]c2c(c1C)C(=O)CC(C)(C)C2)C(=O)Nc1ccncc1 (racemic) | 133 µM (≈ 54.6 µg/mL) |  |  | 15.7% | 59.4% | 1.14 µM | 36.3 nm/s | 
7 | CCCCC(NC(=O)c1[nH]c2c(c1C)C(=O)CC(C)(C)C2)C(=O)NC1CCCCC1 (racemic) | 15 µM (≈ 6.23 µg/mL) |  |  | 1.2% | 0% | 0.925 µM | 41.5 nm/s | 

Second part, led by results:

Row | solubility at 1 h [1] | GI50 [2] | GI50 [3] | remaining at 0.5 h [5] | remaining at 0.5 h [6] | IC50 [10] | Papp [4] | SMILES | further results
8 | 13.6 µM (≈ 6.07 µg/mL) | 0.0213 µM | 0.0213 µM | 55.5% | 19.3% | 0.027 µM | 31.2 nm/s | Cc1c(C(=O)N[C@@H](CCC2CC2)C(=O)Nc2ccc(C#N)cc2)[nH]c2c1C(=O)CC(C)(C)C2 | Activity [9]: Active; IC50 ([10]; sf9): 0.027 µM
9 | 4 µM (≈ 1.84 µg/mL) |  | 0.22 µM | 51.9% | 40.5% | 0.05 µM |  | CCc1c(C(=O)N[C@@H](CCC2CC2)C(=O)Nc2ccc(C#N)cc2)[nH]c2c1C(=O)CC(C)(C)C2 | 
10 |  | 2.37 µM |  |  |  |  |  | Cc1c(C(=O)N[C@H](CCC2CC2)C(=O)Nc2ccc(C#N)cc2)[nH]c2c1C(=O)CC(C)(C)C2 | Activity [16]: Non-Toxic; concentration at 4 h [17]: 23.5 µM; AUC(0-inf) [11]: 418 µM·h; concentration at 4 h [18]: 18.9 µM; Activity [19]: Active; Tmax [12]: 4 h; inhibition [20]: inactive; half-life [13]: 1.4 h; IC50 [7]: 0.027 µM; Cmax [14]: 42.4 µM; Activity [15]: inactive; concentration at 4 h [21]: 9.6 µM; IC50 [8]: 0.053 µM; Activity [22]: Active; concentration at 4 h [23]: 46.9 µM
11 | 32.4 µM (≈ 13.7 µg/mL) |  | 0.0615 µM | 36.5% | 7.1% | 0.0396 µM | 63.5 nm/s | Cc1c(C(=O)N[C@@H](CCC2CC2)C(=O)Nc2ccccc2)[nH]c2c1C(=O)CC(C)(C)C2 | Activity [9]: Active
12 | 3.7 µM (≈ 1.76 µg/mL) |  | 0.0913 µM | 1.8% | 70.8% | 0.055 µM |  | CC(C)c1c(C(=O)N[C@@H](CCC2CC2)C(=O)Nc2ccc(C#N)cc2)[nH]c2c1C(=O)CC(C)(C)C2 | 
13 |  | 0.278 µM |  |  |  | 0.0667 µM |  | Cc1c(C(=O)NC(CCC2CC2)C(=O)Nc2ccc(C#N)cc2)[nH]c2c1C(=O)CC(C)(C)C2 (racemic) | 
14 |  | 1.79 µM |  |  |  |  |  | Cc1c(C(=O)NC(CCC2CC2)C(=O)Nc2ccccc2)[nH]c2c1C(=O)CC(C)(C)C2 (racemic) | 

— ChEMBL document CHEMBL5247652, “Discovery of Novel Substrate-Competitive Lysine Methyltransferase G9a Inhibitors as Anticancer Agents” (J Med Chem, 2023)
